Source: ChEMBL document CHEMBL5034030, “Dolabrane Diterpenoids from the Chinese Liverwort Notoscyphus lutescens” (J Nat Prod, 2021)
The source made the active and inactive calls. The calls are words filed in the database; no cut-off is given here.

How the values were obtained:
Type in all cases: cell-based
[1] = target: NAD(P)H dehydrogenase [quinone] 1 (Mus musculus) (UniProt Q64669); assay: Induction of quinone reductase activity in mouse Hepa1c1c7 cells assessed as maximum fold change at 3.1 to 100 uM incubated for 24 hrs by MTT based assay; conditions: dose 3.1-100 µM
[2] = Cytotoxicity against mouse Hepa1c1c7 cells incubated for 24 hrs by MTT based assay; conditions: Hepa-1c1c7, 24 h
[3] = target: NAD(P)H dehydrogenase [quinone] 1 (Mus musculus) (UniProt Q64669); assay: Induction of quinone reductase activity in mouse Hepa1c1c7 cells assessed as maximum fold change at 50 uM incubated for 24 hrs by MTT based assay; conditions: filed as activator

Sequence of NAD(P)H dehydrogenase [quinone] 1 (Mus musculus) (Q64669 whole entry): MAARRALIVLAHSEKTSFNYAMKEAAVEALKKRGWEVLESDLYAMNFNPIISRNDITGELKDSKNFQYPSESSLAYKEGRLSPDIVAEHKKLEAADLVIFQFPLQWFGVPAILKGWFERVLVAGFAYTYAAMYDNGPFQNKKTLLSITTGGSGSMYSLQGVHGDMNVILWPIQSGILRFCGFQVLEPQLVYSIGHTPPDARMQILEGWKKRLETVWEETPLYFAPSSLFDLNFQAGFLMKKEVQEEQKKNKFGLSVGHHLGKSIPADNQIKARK

Activity [1] | Activity [3] | Structure (SMILES) | IC50 [2] [µM]
inactive | – | C=C[C@@]1(C)CC[C@@]2(C)[C@@H](CC[C@]34CO[C@@H](OC)C3=C[C@@H](O)C[C@@H]42)C1 | > 50
– | Active | C=C[C@@]1(C)CC[C@]2(C)C3C[C@H]4C=C(CO)[C@]3(CC[C@H]2C1)C(OC)O4 (stereo not given in full) | > 50
inactive | – | C=C[C@@]1(C)CC[C@@]2(C)[C@@H](CC[C@]34CO[C@H](OC)C3=C[C@@H](O)C[C@@H]42)C1 | > 50
– | Active | C=C[C@@]1(C)CC[C@]2(C)C3C[C@H]4C=C(C=O)[C@]3(CC[C@H]2C1)C(O)O4 (stereo not given in full) | > 50
inactive | – | C=C[C@@]1(C)CC[C@@]2(C)[C@@H](CC=C3[C@@H]2C[C@@H](Cl)[C@H](O)[C@@]3(O)CO)C1 | > 50
– | Active | C=C[C@@]1(C)CC[C@@]2(C)[C@@H](CC[C@]34COC(=O)[C@@H]3C[C@H](O)C[C@H]24)C1 | > 50
inactive | – | CC1=C(Cc2ccccc2)C(=O)O[C@H]1Cc1ccccc1 | > 50
inactive | – | C=C[C@@]1(C)CC[C@@]2(C)[C@@H](CC[C@@]3(C)[C@@H]2CCC(=O)[C@@H]3C)C1 | > 50
– | Active | C=C[C@@]1(C)CC[C@]2(C)C3=C(CC[C@H]2C1)[C@](O)(CO)[C@@H](O)[C@H](Cl)C3 | > 50
inactive | – | C=C[C@@]1(C)CC[C@@]2(C)[C@@H](C[C@@H]3[C@@H](O)C4=C[C@@H](O)C[C@H]2[C@@]43C)C1 | > 50
